Legend:
MSCs [1] = experiment: Protein expression analysis (Luminex assay) of treated MSCs; format: cell-based, Human; conditions: primary MSCs, 2 days; for VEGF secretion / secretion of IL-8: 150 µM DFO or 200 µM PHE, measured in cell lysates; for secretion of IL-8: basic 15-25 pg/mL
Procedure: MSCs were seeded at 5000 cells/cm^2 in T25 flasks. […] After 2 days, cells were lysed with 250 µL RIPA buffer with addition of protease/phosphatase inhibitors (Roche). Total protein concentrations were determined using a BCA kit (Pierce) and 10 µg of total protein was used to determine concentrations of VEGF, IL-8, basic fibroblast growth factor (bFGF), […] stimulating factor (G-CSF) and epidermal growth factor (EGF) using a Luminex assay (Invitrogen) according to the manufacturer's protocol. Briefly, cells and standards were incubated with fluorescent beads, followed by incubation with a biotinylated detection antibody. After incubation with streptavidin-R-Phycoerythrin and washing, both the fluorescence of the coupled beads and the R-phycoerythrin were measured using a Luminex® FlexMap™.

MSCs [2] = experiment: Gene expression analysis by real-time qPCR in treated MSCs; format: cell-based, Human; conditions: for expression of Il-8, VEGF, KDR and Foxc2: 2 days treatment, medium refreshed, 2 more days in basic medium (Figure 8); for VEGF expression: after 2 days of treatment and 2 more days of incubation with fresh medium (Figure 8)
Procedure: MSCs were seeded in triplicate in 6-well plates at 5000 cells/cm^2 and allowed to attach for 10-15 hours in proliferation medium. Upon reaching near confluency, cells were treated as described above. After 2 days of treatment and 2 subsequent days of incubation with fresh medium, cells were lysed immediately with TRIzol. RNA was isolated using a Bioke RNA II nucleospin RNA isolation kit (Machery Nagel) and RNA concentrations were measured using an ND100 spectrophotometer (Nanodrop technologies, USA). cDNA was synthesized from 100 ng of RNA, using iScript (BioRad) according to the manufacturer's protocol. For qualitative PCR, a master mix, containing distilled water, forward primer, reverse primer (Sigma Genosys), BSA, and SYBR green I mix (all from Invitrogen) was prepared. Real-time qPCR was performed in a Light-Cycler (Roche). Light-Cycler data was analyzed using the fit points method of Light-Cycler software. The baseline was set at the lower log-linear part above baseline noise and the crossing […] (Ct value) was determined. Ct values were normalized to the 18S housekeeping gene and delta Ct (Ct, control ― Ct, sample) was used to calculate the upregulation in gene expression (53).

male C57/BL6 mice = experiment: In vivo murine matrigel plug assay; conditions: matrigel plug with DFO (150 uM) or PHE (200 uM), subcutaneous, 7 days, versus PBS
Procedure: In vivo angiogenesis analysis was performed using a matrigel plug assay in male C57/BL6 mice (age 8 weeks)(Charles River). Growth factor reduced matrigel (0.5 ml) (BD Biosciences) was injected into the subcutaneous space on the dorsal side of mice on both the left and right flank. […] Mice were sacrificed 7 days post-implantation. Matrigel plugs were excised and processed for histological analysis. Paraffin sections (5 um) were stained with Hematoxylin, Phloxine and Saffron (HPS) or anti-CD31 (PECAM, Abcam, Cambridge, UK). Vascular ingrowth was scored in a double blinded fashion and quantified using the following method: every individual section was scored for the degree of ingrowth, using five different categories of ingrowth (1=minimal ingrowth at the border of the plug, 5=capillary ingrowth throughout the total plug), and the mean ingrowth score per group was defined (6 sections per plug, 7 mice per group). The endothelial nature of the infiltrating cells was confirmed by the CD31 staining,
Data was analyzed using one-way ANOVA followed by Tukey's multiple comparison's test (P<0,05). For the analysis of the ingrowth in the matrigel plug statistical analysis was performed using ANOVA and unpaired T test.

[3] = 200 µM PHE, compared to DFO and hypoxia

Compound	VEGF secretion (MSCs [1])	secretion of IL-8 (MSCs [1])	secretion of basic fibroblast growth factor (bFGF) (MSCs [1]; [3])	secretion of growth-colony stimulating factor (G-CSF) (MSCs [1]; [3])	expression of Il-8, VEGF, KDR and Foxc2 (MSCs [2])	VEGF expression (MSCs [2])	capillary ingrowth (male C57/BL6 mice)
c1cnc2c(c1)ccc1cccnc12 [PHE, 1, 10-phenanthroline]	65 pg/mL	300 to 500 pg/mL	reduced	reduced	still significantly increased	still highly expressed	significantly increased capillary ingrowth
CC(=O)N(O)CCCCCNC(=O)CCC(=O)N(O)CCCCCNC(=O)CCC(=O)N(O)CCCCCN [DFO, reference compound]	140 pg/mL	15 to 25 pg/mL	–	–	returned to basal levels	comparable to non-treated cells	significantly increased capillary ingrowth
